Assay [1] concerns the target T1, GST tagged LXRbeta LBD (ligand binding domain) (Homo sapiens, UniProt P55055).
T1 construct: purchased Invitrogen pv4658.pps
T1 sequence (P55055 222-460 limits assumed): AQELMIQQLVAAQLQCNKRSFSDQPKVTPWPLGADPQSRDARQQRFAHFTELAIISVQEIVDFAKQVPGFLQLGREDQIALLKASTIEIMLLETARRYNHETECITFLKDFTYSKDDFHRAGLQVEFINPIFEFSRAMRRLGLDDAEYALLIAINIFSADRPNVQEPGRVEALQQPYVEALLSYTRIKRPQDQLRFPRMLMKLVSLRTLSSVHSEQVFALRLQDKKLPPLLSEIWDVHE
The assay is described as follows: LanthaScreen TR-FRET Liver X Receptor Coactivator Assay, LXR beta-LBD (co-activator recruitment; IP and % Emax relative to T0901317). Format: biochemical. The conditions noted are these: for EC50: Inflection Point of co-activator recruitment, LXR beta-LBD, TR-FRET; for Emax: efficacy at max dose in relation to reference T0901317, LXR beta-LBD, read-out: LXR beta actiivty at max dose (%). An outline of the steps: (§1)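 TR-FRET coactivator recruitment; LBD + cpd, then fluorescein coactivator peptide/Tb anti-GST Ab mix; RT incubation; IP and Emax vs T0901317.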
In general terms: In TR-FRET formats the signal depends on donor and acceptor labels being close together.

Assay [2] deals with T2, GST tagged LXRalpha LBD (ligand binding domain) (Homo sapiens, UniProt Q13133).
T2 construct: purchased Invitrogen pv4655
T2 sequence (Q13133 209-447 limits assumed): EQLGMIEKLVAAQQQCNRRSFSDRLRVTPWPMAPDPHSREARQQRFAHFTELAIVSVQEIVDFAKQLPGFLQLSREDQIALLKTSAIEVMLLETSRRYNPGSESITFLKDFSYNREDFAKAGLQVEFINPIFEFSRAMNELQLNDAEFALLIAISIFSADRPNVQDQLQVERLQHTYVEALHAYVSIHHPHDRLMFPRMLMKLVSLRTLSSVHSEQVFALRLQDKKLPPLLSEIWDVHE
The assay is described as follows: LanthaScreen TR-FRET Liver X Receptor Coactivator Assay, LXR alpha-LBD (co-activator recruitment; IP and % Emax relative to T0901317). Format: biochemical. As to conditions: for LXR alpha IP (nM) / EC50: Inflection Point of co-activator recruitment, LXR alpha-LBD, TR-FRET; for Emax: efficacy at max dose in relation to reference T0901317, LXR alpha-LBD, read-out: LXR alpha actiivty at max dose (%). The gist of the method: as §1

Here are results for 17 compounds from patent publication US10961215B2, “N-aryl and N-heteroaryl piperidine derivatives as liver X receptor beta agonists, compositions, and their use” (Merck Sharp & Dohme Corp., priority 2016, dated 2021).

Regarding `COc1cccc([C@@](O)(C(=O)N(C)CCCC2(F)CCN(c3ccc(C(=O)N(C)C)c(Cl)c3)CC2)C(F)(F)F)c1` [Example 12-2, (R)-2-chloro-4-(4-fluoro-4-(3-(3,3,3-trifluoro-2-hydroxy-2-(3-methoxyphenyl)-N-methylpropanamido)propyl)piperidin-1-yl)-N,N-dimethylbenzamide], in assay [1], the EC50 is 218 nM and the Emax stood at 25%. In assay [2], the “LXR alpha IP (nM)” value is “No IP” and the Emax was 4%.
Consider `COc1cccc([C@@](O)(C(=O)N(C)CCCC2(F)CCN(c3ccc(C(=O)N(C)C)c(Cl)n3)CC2)C(F)(F)F)c1` [Example 12-3, (R)-2-chloro-6-(4-fluoro-4-(3-(3,3,3-trifluoro-2-hydroxy-2-(3-methoxyphenyl)-N-methylpropanamido)propyl)piperidin-1-yl)-N,N-dimethylnicotinamide], for which, in assay [1], the EC50 is 151 nM and the Emax is 58%. In assay [2], the “LXR alpha IP (nM)” value is on record as “No IP” and the Emax was determined as 12%.
`CN(C)C(=O)c1ccc(N2CCC(F)(CCCN(C)C(=O)[C@](O)(c3ccccc3)C(F)(F)F)CC2)nc1Cl` [Example 12-4, (R)-2-chloro-6-(4-fluoro-4-(3-(3,3,3-trifluoro-2-hydroxy-N-methyl-2-phenylpropanamido)propyl)piperidin-1-yl)-N,N-dimethylnicotinamide]: in assay [1], the 50% effective concentration (EC50) turned out to be 266 nM and the Emax was determined as 46%. In assay [2], the “LXR alpha IP (nM)” value is on record as “No IP” and the Emax is 0%.
As to `COc1cccc([C@@](O)(C(=O)N(C)CCC2CC3(CCN(c4ccc(C(=O)N(C)C)c(Cl)n4)CC3)C2)C(F)(F)F)c1` [Example 13-1], in assay [1], the 50% effective concentration (EC50) is 34 nM and the Emax was 50%. In addition, in assay [2], the EC50 worked out at 472 nM and the Emax is 26%.
For `CNC(=O)c1ccc(N2CCC3(CC2)CC(CCN(C)C(=O)[C@](O)(c2cccc(OC)c2)C(F)(F)F)C3)nc1Cl` [Example 13-2, 2-chloro-N-methyl-6-(2-(2-((R)-3,3,3-trifluoro-2-hydroxy-2-(3-methoxyphenyl)-N-methylpropanamido)ethyl)-7-azaspiro[3.5]nonan-7-yl)nicotinamide], in assay [1], the EC50 was 142 nM and the Emax is 49%. In addition, in assay [2], the “LXR alpha IP (nM)” value is “No IP” and the Emax was determined as 1%.
On to `COc1cccc([C@@](O)(C(=O)N(C)CCC2CC3(CCN(c4ccc(C(=O)NC5CC5)c(Cl)n4)CC3)C2)C(F)(F)F)c1` [Example 13-3, 2-chloro-N-cyclopropyl-6-(2-(2-((R)-3,3,3-trifluoro-2-hydroxy-2-(3-methoxyphenyl)-N-methylpropanamido)ethyl)-7-azaspiro[3.5]nonan-7-yl)nicotinamide], for which, in assay [1], the concentration giving a half-maximal response (EC50) came to 654 nM and the Emax is 35%. In addition, in assay [2], the “LXR alpha IP (nM)” value was “No IP” and the Emax came out at 1%.
As to `COc1cccc([C@@](O)(C(=O)N(C)CC2CC3(CCN(c4ccc(C(=O)N(C)C)c(Cl)n4)CC3)C2)C(F)(F)F)c1` [Example 14-1, 2-chloro-N,N-dimethyl-6-(2-(((R)-3,3,3-trifluoro-2-hydroxy-2-(3-methoxyphenyl)-N-methylpropanamido)methyl)-7-azaspiro[3.5]nonan-7-yl)nicotinamide], in assay [1], the EC50 amounted to 35 nM and the Emax is 42%. Also, in assay [2], the “LXR alpha IP (nM)” value was “No IP” and the Emax stood at 5%.
On to `CNC(=O)c1ccc(N2CCC3(CC2)CC(CN(C)C(=O)[C@](O)(c2cccc(OC)c2)C(F)(F)F)C3)nc1Cl` [Example 14-2, 2-chloro-N-methyl-6-(2-(((R)-3,3,3-trifluoro-2-hydroxy-2-(3-methoxyphenyl)-N-methylpropanamido)methyl)-7-azaspiro[3.5]nonan-7-yl)nicotinamide], for which, in assay [1], the EC50 came to 473 nM and the Emax came out at 30%. Besides, in assay [2], the “LXR alpha IP (nM)” value is recorded as “No IP” and the Emax came out at 8%.
The like results for `CCOc1cccc([C@@](O)(C(=O)N(C)C[C@@H]2C[C@@H]2C2CCN(c3ccc(C(=O)N(C)C)c(Cl)n3)CC2)C(F)(F)F)c1` [Example 15-1, 2-chloro-6-(4-((1R,2R)-2-(((R)-2-(3-ethoxyphenyl)-3,3,3-trifluoro-2-hydroxy-N-methylpropanamido)methyl)cyclopropyl)piperidin-1-yl)-N,N-dimethylnicotinamide] were, in that order, 34 nM, 66%, “No IP” and 9%.
In the case of `CN(C)C(=O)c1ccc(N2CCC([C@H]3C[C@H]3CN(C)C(=O)[C@](O)(c3ccccc3)C(F)(F)F)CC2)nc1Cl` [Example 15-2, 2-chloro-N,N-dimethyl-6-(4-((1R,2R)-2-(((R)-3,3,3-trifluroo-2-hydroxy-N-methyl-2-phenylpropanamido)methyl)cyclopropyl)piperidin-1-yl)nicotinamide], in assay [1], a half-maximal response (EC50) required 10 nM and the Emax turned out to be 64%. Further, in assay [2], the EC50 amounted to 289 nM and the Emax was 25%.
With `COc1cccc([C@@](O)(C(=O)N(C)C[C@@H]2C[C@@H]2C2CCN(c3ccc(C(=O)N(C)C)c(Cl)n3)CC2)C(F)(F)F)c1` [Example 15-3, 2-chloro-N,N-dimethyl-6-(4-((1R,2R)-2-(((R)-3,3,3-trifluoro-2-hydroxy-2-(3-methoxyphenyl)-N-methylpropanamido)methyl)cyclopropyl)piperidin-1-yl)nicotinamide], in assay [1], the EC50 is 17 nM and the Emax was found to be 58%. Further, in assay [2], the “LXR alpha IP (nM)” value is on record as “No IP” and the Emax came out at 10%.
Consider `CN(C)C(=O)c1ccc(N2CCC([C@H]3C[C@H]3CN(C)C(=O)[C@](O)(c3cccc(OC(F)(F)F)c3)C(F)(F)F)CC2)nc1Cl` [Example 15-4, 2-chloro-N,N-dimethyl-6-(4-((1R,2R)-2-(((R)-3,3,3-trifluoro-2-hydroxy-N-methyl-2-(3-(trifluoromethoxy)phenyl)propanamido)methyl)cyclopropyl)piperidin-1-yl)nicotinamide], for which the concentration giving a half-maximal response (EC50) worked out at 23 nM in assay [1] and 623 nM in assay [2]. The Emax in assay [1] was 50%; in assay [2] it was 15%.
For `CN(C)C(=O)c1ccc(N2CCC([C@H]3C[C@H]3CN(C)C(=O)[C@](O)(c3cccc(C4CC4)c3)C(F)(F)F)CC2)nc1Cl` [Example 15-5, 2-chloro-6-(4-((1R,2R)-2-(((R)-2-(3-cyclopropylphenyl)-3,3,3-trifluoro-2-hydroxy-N-methylpropanamido)methyl)cyclopropyl)piperidin-1-yl)-N,N-dimethylnicotinamide], in assay [1], the EC50 was 16 nM and the Emax came to 75%. Further, in assay [2], the “LXR alpha IP (nM)” value was “No IP” and the Emax was determined as 18%.
Taken in the same sequence, the figures for `CN(C)C(=O)c1ccc(N2CCC([C@H]3C[C@H]3CN(C)C(=O)[C@](O)(c3cc(Cl)cc(Cl)c3)C(F)(F)F)CC2)nc1Cl` [Example 15-6, 2-chloro-6-(4-((1R,2R)-2-(((R)-2-(3,5-dichlorophenyl)-3,3,3-trifluoro-2-hydroxy-N-methylpropanamido)methyl)cyclopropyl)piperidin-1-yl)-N,N-dimethylnicotinamdie] were 9 nM, 29%, “No IP” and 4%.
Taken in the same sequence, the figures for `CN(C)C(=O)c1ccc(N2CCC([C@H]3C[C@H]3CN(C)C(=O)[C@](O)(c3cccc(C(F)(F)F)c3)C(F)(F)F)CC2)nc1Cl` [Example 15-7, 2-chloro-N,N-dimethyl-6-(4-((1R,2R)-2-(((R)-3,3,3-trifluoro-2-hydroxy-N-methyl-2-(3-(trifluoromethyl)phenyl)rpropanamido)methyl)cyclopropyl)piperidin-1-yl)nicotinamide] were 26 nM, 53%, “No IP” and 11%.
In the case of `CN(C)C(=O)c1ccc(N2CCC([C@H]3C[C@H]3CN(C)C(=O)[C@](O)(c3cccc(OC4CC4)c3)C(F)(F)F)CC2)nc1Cl` [Example 15-8, 2-chloro-6-(4-((1R,2R)-2-(((R)-2-(3-cyclopropoxyphenyl)-3,3,3-trifluoro-2-hydroxy-N-methylpropanamido)methyl)cyclopropyl)piperidin-1-yl)-N,N-dimethylnicotinamide], in assay [1], the EC50 was 74 nM and the Emax was found to be 59%. In assay [2], the “LXR alpha IP (nM)” value was “No IP” and the Emax is 0%.
Take `CN(C)C(=O)c1ccc(N2CCC([C@H]3C[C@H]3CNC(=O)[C@](O)(c3ccccc3)C(F)(F)F)CC2)nc1Cl` [Example 15-9]: in assay [1], the concentration giving a half-maximal response (EC50) stood at 393 nM and the Emax worked out at 54%. Besides, in assay [2], the midpoint of the response, the EC50, lay at 4220 nM and the Emax is 39%.

As usually defined, the EC50 is the concentration that produces a half-maximal response.
